We go through one compound from PubChem BioAssay AID2525 (Broad Institute, 2010).

The structures appear in SMILES notation. Calls of active or inactive are those of the source.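 The calls were made as follows: active = EC50 at most tenfold above the top concentration tested; inconclusive = flat fit with activity between 30% and 70%, or invalid fit; inactive = EC50 beyond tenfold above the top concentration.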 Bounds are passed on as bounds.

As usually defined, the EC50 is the midpoint of the concentration-response curve.

This assay deals with S. cerevisiae SKY197-pL101 polyadenylation reporter, beta-gal luminescence, 9 h. The experiment in a line: polyadenylation inhibitors in yeast reporter, dose response, luminescence, S. cerevisiae SKY197-pL101 (AID 2525).

Take `Nc1ncnc2c1ncn2C1OC(CO)CC1O` (stereo unspecified): the EC50 was > 50 µM (inactive).
